This is an account of results in patent publication US4657897A, “N^6 -substituted adenosines for treating pain” (Warner-Lambert Company, priority 1985, dated 1987).

Like-named read-outs stand apart in the source and are kept apart here.

In test [1] the target is T1, adenosine A1 receptor (Rattus norvegicus, UniProt P25099).
T1 construct: Whole brain minus cerebellum and brainstem from male Long Evans rats; from tissue; host or cells: rat whole brain minus cerebellum and brainstem (male Long Evans), membranes
T1 sequence (P25099 1-326): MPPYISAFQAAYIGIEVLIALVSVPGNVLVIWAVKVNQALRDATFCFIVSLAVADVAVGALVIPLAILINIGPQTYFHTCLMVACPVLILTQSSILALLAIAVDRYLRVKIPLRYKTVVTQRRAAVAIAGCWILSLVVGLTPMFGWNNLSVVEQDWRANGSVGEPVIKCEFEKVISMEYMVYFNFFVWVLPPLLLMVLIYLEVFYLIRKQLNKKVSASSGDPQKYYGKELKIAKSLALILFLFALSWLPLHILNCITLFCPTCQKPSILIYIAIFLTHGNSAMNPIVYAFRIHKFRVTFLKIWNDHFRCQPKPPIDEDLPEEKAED
Nature of the test: Adenosine Receptor Binding--A1 Receptor Affinity (RBA1), [3H]-CHA binding, rat whole brain membranes. More on the design: species or system rat (male Long Evans). The following applies: 1.0 nM [3H]-CHA, 25° C., 1 h. As for the experimental part: Adenosine Receptor Binding--A1 Receptor Affinity (RBA1)
Whole brain minus cerebellum and brainstem from male Long Evans rats (150-200 g) was homogenized in 30 volumes of ice-cold 0.05M Tris-HCl buffer pH 7.7 using a Brinkman Polytron PT-10, (setting number 6 for 20 seconds) and centrifuged for ten minutes at 20,000×g (Sorvall RC-2), 4° C. The supernatant was discarded, and the pellet was resuspended and centrifuged as before. The pellet was resuspended in 20 ml Tris-HCl buffer containing two International Units/ml of adenosine deaminase (Sigma type III from calf intestinal mucosa), incubated at 37° C. for 30 minutes, then subsequently at 0° C. for ten minutes. The homogenate was again centrifuged, and the final pellet was resuspended in ice-cold 0.05M Tris-HCl buffer pH 7.7 to a concentration of 20 mg/ml original wet tissue weight and used immediately.
Tissue homogenate (10 mg/ml) was incubated in 0.05M Tris-HCl buffer pH 7.7 containing 1.0 nM [^3 H]-N^6 -cyclohexyladenosine[^3 H]-CHA) with or without test agents in triplicate for one hour at 25° C. Incubation volume was 2 ml. Unbound [^3 H]-CHA was separated by rapid filtration under reduced pressure through Whatman glass fiber (GF/B) filters. The filters were rinsed three times with 5 ml of ice cold 0.05M Tris-HCl buffer pH 7.7. The radio-labeled ligand retained on the filter was measured by liquid scintillation spectrophotometry after shaking the filters for one hour or longer on a mechanical shaker in 10 ml of Beckman Ready-Solv HP scintillation cocktail.
Nonspecific binding was defined as the binding which occurred in the presence of 1 mM theophylline. The concentration of test agent which inhibited 50% of the specific binding (IC50) was determined by nonlinear computer curve fit. The Scatchard plot was calculated by linear regression of the line obtained by plotting the amount of radioligand bound (pmoles/gram of tissue) [formula] Since the amount of radioligand bound was a small fraction of the total amount added, free radioligand was defined as the concentration (nM) of radioligand added to the incubation mixture. The Hill coefficient was calculated by linear regression of the line obtained by plotting the log of the bound radioligand vs the log of the [formula] The maximal number of binding sites (Bmax) was calculated from the Scatchard plot.

In test [2] the target is T2, adenosine A2 receptor (Rattus norvegicus, UniProt P30543).
T2 construct: 5 mg original tissue weight of rat weight of rat striatal membranes; tissue Pel-Freez (Rogers, Ark.) for the brains; host or cells: rat striatum (Sprague-Dawley; Long-Evans gave essentially identical results), membranes
Put plainly: Adenosine Receptor Binding--A2 Receptor Affinity (RBA2), [3H]NECA binding, rat striatal membranes. Set-up: species or system rat (mixed sex Sprague-Dawley; male Long-Evans). The following applies: 4 nM [3H]NECA, 50 nM N6-cyclopentyladenosine, 25° C., 60 min. As for the experimental part: Adenosine Receptor Binding--A2 Receptor Affinity (RBA2)
Brains from 200-500 g mixed sex Sprague-Dawley rats were purchased from Pel-Freez (Rogers, Ark.). […] Brains were thawed and then kept on ice while the striata were dissected out. Striata were disrupted in 10 vol of ice-cold 50 mM Tris.HCl (pH 7.7 at 25° C., pH 8.26 at 5° C.) (Tris) for 30 seconds in a Polytron PT-10 (Brinkmann) at setting 5. The suspension was centrifuged at 50,000 xg for ten minutes, the supernatant discarded, the pellet resuspended in 10 vol ice-cold Tris as above, recentrifuged, resuspended at 1 g/5 ml, and stored in plastic vials at -70° C. […] When needed, tissue was thawed at room temperature, disrupted in a Polytron, and kept on ice until used.
Test compounds were dissolved at 10 mM in dimethylsulfoxide on the same day as the experiment, and diluted in dimethylsulfoxide to 100× the final incubation concentration. […] [^3 H]NECA was diluted to 40 nM in Tris. […] After all additions, the rack of tubes was vortexed, and the tubes were then incubated for 60 min at 25° C. in a shaking water bath. The rack of tubes was vortexed an additional time halfway through the incubation.
Incubations were terminated by filtration through 2.4 cm GF/B filters under reduced pressure. Each tube was filtered as follows: the contents of the tube were poured onto the filter, 4 ml of ice-cold Tris were added to the tube and the contents poured onto the filter, and the filter was washed twice with 4 ml of ice-cold Tris. The filtration was complete in about twelve seconds. Filters were put in scintillation vials, 8 ml of Formula 947 scintillation fluid added, and the vials left overnight, shaken, and counted in a liquid scintillation counter at 40% efficiency.
The IC50 was calculated by weighted nonlinear least squares curve-fitting to the mass-action equation. [formula] where Y is cpm bound
T is cpm total binding without drug
S is cpm specific binding without drug
D is the concentration of drug
K is the IC50 of the drug
Weighting factors were calculated under the assumption that the standard deviation was proportional to the predicted value of Y. Nonspecific binding was treated as a very large (infinite) concentration of drug in the computer analysis.

Test [3] is described as follows: Mouse Activity and Screen Test (MAST), screen test failure (ST). Format: in vivo, mouse (Swiss-Webster, male). The settings on record: for Inhibition of screen test failure: percent of mice falling off the screen; for minimal effective dose: Mus musculus, ip, read-out: MAST ST LAD. As for the experimental part: Treatments are administered intraperitoneally one hour prior to testing. […] Compounds are dissolved or suspended in 0.2% Methocel. Control animals are injected with Methocel.
The compounds are identified in the Examples.

Where [4] appears, read: lowest dose at which an A rating is achieved, screen test, intraperitoneal, 1 h prior to testing.

T2 sequence (P30543 whole entry): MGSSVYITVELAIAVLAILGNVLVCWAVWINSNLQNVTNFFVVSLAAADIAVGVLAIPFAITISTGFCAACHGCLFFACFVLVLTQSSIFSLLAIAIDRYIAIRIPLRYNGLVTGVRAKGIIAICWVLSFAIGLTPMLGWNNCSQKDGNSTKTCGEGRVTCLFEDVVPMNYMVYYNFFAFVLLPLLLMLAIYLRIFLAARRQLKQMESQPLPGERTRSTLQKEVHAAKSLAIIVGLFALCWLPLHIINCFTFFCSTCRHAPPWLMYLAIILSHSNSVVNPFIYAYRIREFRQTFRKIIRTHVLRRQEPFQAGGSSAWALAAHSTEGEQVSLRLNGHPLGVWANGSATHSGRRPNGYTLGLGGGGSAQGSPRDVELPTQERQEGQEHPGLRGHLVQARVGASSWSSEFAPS

By IC50 is commonly meant the midpoint of a concentration-inhibition curve. High values mean weaker potency, low ones greater potency. For the molecule `OC[C@H]1O[C@@H](n2cnc3c(NCC(c4ccccc4)c4ccccc4)nc(Cl)nc32)[C@H](O)[C@@H]1O` [Example 3, N^6-(2,2-Diphenylethyl)-2-chloroadenosine], the values for the half-maximal inhibitory concentration (IC50) in test [1] and in test [2] were 67 nM and 139 nM, respectively. Besides, the results for the “Inhibition of screen test failure” value in test [3] (10 mg/kg intraperitoneal), in test [3] (30 mg/kg intraperitoneal) and in test [3] (100 mg/kg intraperitoneal) were 0%, 11% and 44%, respectively. In addition, the minimal effective dose in test [3] (setting [4]) was above 100 mg/kg.

In the case of `Nc1nc(NCC(c2ccccc2)c2ccccc2)c2ncn([C@@H]3O[C@H](CO)[C@@H](O)[C@H]3O)c2n1` [Example 4, N^6-(2,2-Diphenylethyl)-2-aminoadenosine], the IC50 turned out to be 89 nM in test [1] and 275 nM in test [2]. Moreover, the results for the “Inhibition of screen test failure” value in test [3] (10 mg/kg intraperitoneal), in test [3] (30 mg/kg intraperitoneal) and in test [3] (100 mg/kg intraperitoneal) were 0%, 11% and 22%, respectively. Further, the minimal effective dose in test [3] (setting [4]) is above 100 mg/kg.

As for `OC[C@H]1O[C@@H](n2cnc3c(NC(c4ccccc4)c4ccccc4)ncnc32)[C@H](O)[C@@H]1O` [Example 5, N^6 -Diphenylmethyladenosine], the IC50 came to 846 nM in test [1] and 5650 nM in test [2]. Further, the minimal effective dose in test [3] (setting [4]) was above 100 mg/kg.

On to `OC[C@H]1O[C@@H](n2cnc3c(NCCCC(c4ccccc4)c4ccccc4)ncnc32)[C@H](O)[C@@H]1O` [Example 6, N^6-(4,4-Diphenylbutyl)adenosine], for which the IC50 in test [1] came out at 518 nM; in test [2] it was 9520 nM. The minimal effective dose in test [3] (setting [4]) is above 100 mg/kg.

Consider `OC[C@H]1O[C@@H](n2cnc3c(NCCCCC(c4ccccc4)c4ccccc4)ncnc32)[C@H](O)[C@@H]1O` [Example 7, N^6-(5,5-Diphenylpentyl)adenosine], for which the results for the IC50 in test [1] and in test [2] were 147 nM and 3290 nM, respectively. In test [3] (setting [4]), the minimal effective dose is above 100 mg/kg.

With `CC(CNc1ncnc2c1ncn2[C@@H]1O[C@H](CO)[C@@H](O)[C@H]1O)(c1ccccc1)c1ccccc1` [Example 8, N^6-(2,2-Diphenylpropyl)adenosine], the results for the 50% inhibitory concentration (IC50) in test [1] and in test [2] were 66 nM and 41 nM, respectively. In addition, the minimal effective dose in test [3] (setting [4]) is above 100 mg/kg.

Turning to `Cc1cccc(C(CNc2ncnc3c2ncn3[C@@H]2O[C@H](CO)[C@@H](O)[C@H]2O)c2ccccc2)c1` (stereo partly drawn) [Example 9, N^6-(2-(3-Methylphenyl)-2-phenylethyl)adenosine], the IC50 was 13 nM in test [1] and 17 nM in test [2]. For the same molecule, the minimal effective dose in test [3] (setting [4]) turned out to be 100 mg/kg.

With `OC[C@H]1O[C@@H](n2cnc3c(NCC(c4ccccc4)c4ccc(F)cc4)ncnc32)[C@H](O)[C@@H]1O` (stereo partly drawn) [Example 10, N^6-(2-(4-Fluorophenyl)-2-phenylethyl)adenosine], the IC50 in test [1] was 14 nM; in test [2], 71 nM. Moreover, the minimal effective dose in test [3] (setting [4]) was above 100 mg/kg.

As for `OC[C@H]1O[C@@H](n2cnc3c(NCC(c4ccccc4)c4ccc(F)cc4)nc(Cl)nc32)[C@H](O)[C@@H]1O` (stereo partly drawn) [Example 11, N^6-(2-(4-Fluorophenyl)-2-phenylethyl)-2-chloroadenosine], the results for the IC50 in test [1] and in test [2] were 69 nM and 210 nM, respectively. The minimal effective dose in test [3] (setting [4]) is above 100 mg/kg.

In the case of `Nc1nc(NCC(c2ccccc2)c2ccc(F)cc2)c2ncn([C@@H]3O[C@H](CO)[C@@H](O)[C@H]3O)c2n1` (stereo partly drawn) [Example 12, N^6-(2-(4-Fluorophenyl)-2-phenylethyl)-2-amino adenosine], the values for the 50% inhibitory concentration (IC50) in test [1] and in test [2] were 94 nM and 303 nM, respectively. Moreover, in test [3] (setting [4]), the minimal effective dose was above 100 mg/kg.

`OC[C@H]1O[C@@H](n2cnc3c(NCC(c4ccc(F)cc4)c4ccc(F)cc4)ncnc32)[C@H](O)[C@@H]1O` [Example 13, N^6-(2,2-Di-(4-fluorophenyl)ethyl)adenosine]: the values for the IC50 in test [1] and in test [2] were 16 nM and 94 nM, respectively. Also, the minimal effective dose in test [3] (setting [4]) was above 100 mg/kg.

For the molecule `OC[C@H]1O[C@@H](n2cnc3c(NCC(c4ccccc4)c4cccc(Cl)c4)ncnc32)[C@H](O)[C@@H]1O` (stereo partly drawn) [Example 14, N^6-(2-(3-Chlorophenyl)-2-phenylethyl)adenosine], in test [3] (setting [4]), the minimal effective dose was above 100 mg/kg.

For `OC[C@H]1O[C@@H](n2cnc3c(NCC(c4ccccc4)c4ccc(Cl)cc4)ncnc32)[C@H](O)[C@@H]1O` (stereo partly drawn) [Example 15, N^6-(2-(4-Chlorophenyl)-2-phenylethyl)adenosine], the IC50 came to 27 nM in test [1] and 90 nM in test [2]. Besides, the minimal effective dose in test [3] (setting [4]) is above 100 mg/kg.

Turning to `Nc1nc(NCC(c2ccccc2)c2ccc(Cl)cc2)c2ncn([C@@H]3O[C@H](CO)[C@@H](O)[C@H]3O)c2n1` (stereo partly drawn) [Example 16], the values for the concentration for half-maximal inhibition (IC50) in test [1] and in test [2] were 223 nM and 319 nM, respectively. For the same molecule, the minimal effective dose in test [3] (setting [4]) is above 100 mg/kg.

With `OC[C@H]1O[C@@H](n2cnc3c(NCC(c4ccc(Cl)cc4)c4ccc(Cl)cc4)ncnc32)[C@H](O)[C@@H]1O` [Example 17, N^6-(2,2-Di(4-chlorophenyl)ethyl)adenosine], the results for the IC50 in test [1] and in test [2] were 512 nM and 713 nM, respectively. In addition, in test [3] (setting [4]), the minimal effective dose is above 100 mg/kg.

Take `Nc1nc(NCC(c2ccc(Cl)cc2)c2ccc(Cl)cc2)c2ncn([C@@H]3O[C@H](CO)[C@@H](O)[C@H]3O)c2n1` [Example 18]: the IC50 in test [1] turned out to be 1920 nM; in test [2] it was 2120 nM.

On to `COc1ccc(C(CNc2ncnc3c2ncn3[C@@H]2O[C@H](CO)[C@@H](O)[C@H]2O)c2ccccc2)cc1` (stereo partly drawn) [Example 19, N^6-(2-(4-Methoxyphenyl)-2-phenylethyl)adenosine], for which the 50% inhibitory concentration (IC50) in test [1] was 21 nM; in test [2] it was 56 nM. Besides, in test [3] (setting [4]), the minimal effective dose stood at 30 mg/kg.

On to `O=[N+]([O-])c1ccc(C(CNc2ncnc3c2ncn3[C@@H]2O[C@H](CO)[C@@H](O)[C@H]2O)c2ccc([N+](=O)[O-])cc2)cc1` [Example 20], for which the minimal effective dose in test [3] (1 h) was above 100 mg/kg.

The molecule `O=P(O)(O)OC[C@H]1O[C@@H](n2cnc3c(NCC(c4ccccc4)c4ccccc4)ncnc32)[C@H](O)[C@@H]1O` [Example 28, N^6-(2,2-Diphenylethyl)adenosine-5'-phosphate] registered an IC50 in test [2] of around 20 nM. In addition, in test [3] (setting [4]), the minimal effective dose is above 30 mg/kg.
